From PMC11928584, “H105A peptide eye drops promote photoreceptor survival in murine and human models of retinal degeneration” (Communications Medicine, 2025)
Where a SMILES comes first, the peptide text is derived from it.

Experiment: Fluorescence distribution of labeled peptides in retinal cross-sections
Format: in vivo, C57BL/6J mice
Conditions: Alexa Fluor 488-labeled peptide, eye drops, retinal cross-sections 1 h post-administration
Source text: Fig. 1 Penetration and bioavailability of PEDF Peptides 17-mer, H105A, and R99A Delivered via Eye Drops in Mouse Retinas. a Peptide mapping and sequence. Tertiary structure of human PEDF highlighting the small peptide region with neurotrophic activity (17-mer) in blue (top). Primary structure of human PEDF showing the location of the 17-mer region (middle). Sequences of the 17-mer peptide and its variants, H105A and R99A (bottom). b In vivo detection of peptides. Fundus micrographs showing fluorescence from Alexa Fluor 488-labeled 17-mer, H105A, and R99A peptides in the eyes of C57BL/6J mice at P21 days after eye drop administration of 5 µl of peptide at 1 mg/ml (left). Fundus images were taken at 1, 3-, 6-, 24-, and 48 h post-administration. Quantification of fluorescence intensity over time post-administration (right). […] The amount of peptide was quantified from the fluorescence in retinal extracts using standard curves (Supplementary Fig. 1a). Each data point represents the amount of each peptide per eye with three eyes (n = 3) per time point. d Retinal cross-sections showing fluorescence distribution in the photoreceptor layer 1 h after applying eye drops as in Panel B. Representative images for labeled 17-mer, H105A, and R99A peptides are shown, with magnified areas of 17-mer and H105A indicated by dotted rectangles. […]

distribution of labeled peptide in photoreceptor layer: decorated the OS in a punctuated fashion
SMILES: CC[C@H](C)[C@H](NC(=O)[C@H](CC(C)C)NC(=O)[C@H](CC(=O)O)NC(=O)[C@H](Cc1ccc(O)cc1)NC(=O)[C@H](Cc1ccc(O)cc1)NC(=O)[C@H](CC(C)C)NC(=O)[C@H](C)NC(=O)[C@H](CCCNC(=N)N)NC(=O)[C@H](Cc1c[nH]cn1)NC(=O)[C@@H](NC(=O)[C@@H](NC(=O)[C@H](CO)NC(=O)[C@H](CCC(=O)O)NC(=O)[C@@H](NC(=O)[C@H](CCCNC(=N)N)NC(=O)[C@@H](N)CCC(N)=O)[C@@H](C)O)[C@@H](C)CC)[C@@H](C)CC)C(=O)N[C@@H](CO)C(=O)O [17-mer] (H-QRTESIIHRALYYDLIS-OH)
